For the assay, the system named is E. coli, P. aeruginosa, A. calcoaceticus and S. aureus. As to the kind of experiment: MIC and MBC summarised across the test species. The class given is cell-based. As to conditions: species not given.

Square brackets hold non-standard residues; d marks the D form. Peptide text beside a SMILES is read from it. * marks the point of attachment. CH2CH2OBz(4-tBu) = CC(C)(C)c1ccc(C(=O)OCC*)cc1; dDab = NCC[C@@H](N)C(=O)O; Dab = NCC[C@H](N)C(=O)O; Mpa = O=C(O)CCS

With `CC(C)C[C@H](NC(=O)[C@H](CCN)NC(=O)[C@H](CCN)NC(=O)[C@@H](Cc1ccccc1)NC(=O)[C@H](CC(C)C)NC(=O)[C@H](CCN)NC(=O)[C@H](CCN)NC(=O)[C@@H](CCN)NC(=O)[C@@H](N)CSCCOC(=O)c1ccc(C(C)(C)C)cc1)C(N)=O` [Peptide 12f] (H-C(CH2CH2OBz(4-tBu))[dDab][Dab][Dab]L[dF][Dab][Dab]L-NH2), the “lowest MIC values of the CLipPA analogues” value is reported as 8 μM.
Next, `CC(C)C[C@H](NC(=O)[C@H](CCN)NC(=O)[C@H](CCN)NC(=O)[C@@H](Cc1ccccc1)NC(=O)[C@H](CC(C)C)NC(=O)[C@H](CCN)NC(=O)[C@H](CCN)NC(=O)[C@@H](CCN)NC(=O)CCSCCOC(=O)c1ccc(C(C)(C)C)cc1)C(N)=O` [Peptide 13f] ([Mpa](CH2CH2OBz(4-tBu))[dDab][Dab][Dab]L[dF][Dab][Dab]L-NH2): 8 μM.

Source of the values: PMC8159387 (Chemical Science, 2020).
